What follows are compounds tested on Botrytis cinerea (assay: Test B: tomato Botrytis, preventive spray on tomato seedlings, visual disease rating). Conditions: Botrytis cinerea, in Solanum lycopersicum, 120 h, read-out: Test B rating (% disease control).

Row | SMILES | pest or weed control at 200 µg/mL
1 | Cc1nn(C)c(Nc2c(F)cc(F)cc2F)c1-c1ccc(F)cc1Cl [Compound 18, 4-(2-chloro-4-fluorophenyl)-1,3-dimethyl-N-(2,4,6-trifluorophenyl)-1H-pyrazol-5-amine] | 99%
2 | COc1cc(F)c(-c2c(C)nn(C)c2Nc2ccc(F)cc2F)c(F)c1 [Compound 23, 4-(2,6-difluoro-4-methoxyphenyl)-N-(2,4-difluorophenyl)-1,3-dimethyl-1H-pyrazol-5-amine] | 98%

Same assay, conditions: tomato Botrytis, preventive spray; 100 = 100% disease control, 0 = no control

Row | SMILES | Test B rating (% disease control)
3 | Cc1nn(C)c(Oc2c(F)cc([N+](=O)[O-])cc2F)c1-c1ccc(F)cc1Cl [compound 121] | 100%
4 | Cc1nn(C)c(Nc2ccc(F)cc2Cl)c1-c1c(F)cc(C#N)cc1F [compound 112] | 100%
5 | Cc1nn(C)c(Nc2ccc(Cl)cc2)c1-c1c(F)cc(C#N)cc1F [compound 110] | 99%
6 | Cc1nn(C)c(Oc2ccc(Cl)cn2)c1-c1c(F)cc(F)cc1F [compound 39] | 100%
7 | COc1cc(F)c(-c2c(C)nn(C)c2Oc2c(F)cc(Br)cc2F)c(F)c1 [compound 90] | 99%
8 | Cc1nn(C)c(Nc2ncc(Cl)cc2Cl)c1-c1ccc(F)cc1Cl [compound 73] | 100%

These compounds were tested on Septoria nodorum (assay: Test F: Septoria glume blotch, preventive spray on wheat seedlings, visual disease rating). Conditions: Parastagonospora nodorum, in Triticum aestivum, 192 h, read-out: Test F rating (% disease control).
Source text: (§1) General protocol for preparing test suspensions for Tests A-J: the test compounds were first dissolved in acetone in an amount equal to 3% of the final volume and then suspended at the desired concentration (in ppm) in acetone and purified water (50/50 mix by volume) containing 250 ppm of the surfactant Trem® 014 (polyhydric alcohol esters). The resulting test suspensions were then used in Tests A-J. Spraying a 200 ppm test suspension to the point of run-off on the test plants was the equivalent of a rate of 500 g/ha. Unless otherwise indicated, the rating values indicate a 200 ppm test suspension was used. (An asterisk “*” next to the rating value indicates a 40 ppm test suspension was used.)
The test suspension was sprayed to the point of run-off on wheat seedlings. The following day the seedlings were inoculated with a spore suspension of Septoria nodorum (the causal agent of Septoria glume blotch) and incubated in a saturated atmosphere at 24° C. for 48 h, and then moved to a growth chamber at 20° C. for 6 days, after which time visual disease ratings were made.

Row | SMILES | pest or weed control at 200 µg/mL
9 | Cc1nn(C)c(Nc2c(F)cc(F)cc2F)c1-c1ccc(F)cc1Cl [Compound 18, 4-(2-chloro-4-fluorophenyl)-1,3-dimethyl-N-(2,4,6-trifluorophenyl)-1H-pyrazol-5-amine] | 99%
10 | COc1cc(F)c(-c2c(C)nn(C)c2Nc2ccc(F)cc2F)c(F)c1 [Compound 23, 4-(2,6-difluoro-4-methoxyphenyl)-N-(2,4-difluorophenyl)-1,3-dimethyl-1H-pyrazol-5-amine] | 99%

Same assay, conditions: Septoria glume blotch on wheat, preventive spray; 100 = 100% disease control, 0 = no control

Row | SMILES | Test F rating (% disease control)
11 | Cc1nn(C)c(Oc2c(F)cc([N+](=O)[O-])cc2F)c1-c1ccc(F)cc1Cl [compound 121] | 82%
12 | Cc1nn(C)c(Nc2ccc(F)cc2Cl)c1-c1c(F)cc(C#N)cc1F [compound 112] | 99%
13 | Cc1nn(C)c(Nc2ccc(Cl)cc2)c1-c1c(F)cc(C#N)cc1F [compound 110] | 98%
14 | Cc1nn(C)c(Oc2ccc(Cl)cn2)c1-c1c(F)cc(F)cc1F [compound 39] | 0%
15 | COc1cc(F)c(-c2c(C)nn(C)c2Oc2c(F)cc(Br)cc2F)c(F)c1 [compound 90] | 84%
16 | Cc1nn(C)c(Nc2ncc(Cl)cc2Cl)c1-c1ccc(F)cc1Cl [compound 73] | 64%

What follows are compounds tested on Septoria tritici (assay: Test G: wheat leaf blotch, preventive spray on wheat seedlings, visual disease rating). Conditions: Zymoseptoria tritici, in Triticum aestivum, 504 h, read-out: Test G rating (% disease control).

Row | SMILES | pest or weed control at 200 µg/mL
17 | Cc1nn(C)c(Nc2c(F)cc(F)cc2F)c1-c1ccc(F)cc1Cl [Compound 18, 4-(2-chloro-4-fluorophenyl)-1,3-dimethyl-N-(2,4,6-trifluorophenyl)-1H-pyrazol-5-amine] | 95%
18 | COc1cc(F)c(-c2c(C)nn(C)c2Nc2ccc(F)cc2F)c(F)c1 [Compound 23, 4-(2,6-difluoro-4-methoxyphenyl)-N-(2,4-difluorophenyl)-1,3-dimethyl-1H-pyrazol-5-amine] | 93%

Same assay, conditions: wheat leaf blotch, preventive spray; 100 = 100% disease control, 0 = no control

Row | SMILES | Test G rating (% disease control)
19 | Cc1nn(C)c(Oc2c(F)cc([N+](=O)[O-])cc2F)c1-c1ccc(F)cc1Cl [compound 121] | 99%
20 | Cc1nn(C)c(Nc2ccc(F)cc2Cl)c1-c1c(F)cc(C#N)cc1F [compound 112] | 99%
21 | Cc1nn(C)c(Nc2ccc(Cl)cc2)c1-c1c(F)cc(C#N)cc1F [compound 110] | 99%
22 | Cc1nn(C)c(Oc2ccc(Cl)cn2)c1-c1c(F)cc(F)cc1F [compound 39] | 99%
23 | COc1cc(F)c(-c2c(C)nn(C)c2Oc2c(F)cc(Br)cc2F)c(F)c1 [compound 90] | 100%
24 | Cc1nn(C)c(Nc2ncc(Cl)cc2Cl)c1-c1ccc(F)cc1Cl [compound 73] | 100%

These compounds were tested on Erysiphe graminis f sp. tritici (assay: Test J: wheat powdery mildew, preventive spray on wheat seedlings, visual disease rating). Conditions: Blumeria graminis, in Triticum aestivum, 192 h, read-out: Test J rating (% disease control).
Source text: as §1
The test suspension was sprayed to the point of run-off on wheat seedlings. The following day the seedlings were inoculated with a spore dust of Erysiphe graminis f sp. tritici, (the causal agent of wheat powdery mildew) and incubated in a growth chamber at 20° C. for 8 days, after which time visual disease ratings were made.

Row | SMILES | pest or weed control at 200 µg/mL
25 | Cc1nn(C)c(Nc2c(F)cc(F)cc2F)c1-c1ccc(F)cc1Cl [Compound 18, 4-(2-chloro-4-fluorophenyl)-1,3-dimethyl-N-(2,4,6-trifluorophenyl)-1H-pyrazol-5-amine] | 100%
26 | COc1cc(F)c(-c2c(C)nn(C)c2Nc2ccc(F)cc2F)c(F)c1 [Compound 23, 4-(2,6-difluoro-4-methoxyphenyl)-N-(2,4-difluorophenyl)-1,3-dimethyl-1H-pyrazol-5-amine] | 100%

Same assay, conditions: wheat powdery mildew, preventive spray; 100 = 100% disease control, 0 = no control

Row | SMILES | Test J rating (% disease control)
27 | Cc1nn(C)c(Oc2c(F)cc([N+](=O)[O-])cc2F)c1-c1ccc(F)cc1Cl [compound 121] | 97%
28 | Cc1nn(C)c(Nc2ccc(F)cc2Cl)c1-c1c(F)cc(C#N)cc1F [compound 112] | 100%
29 | Cc1nn(C)c(Nc2ccc(Cl)cc2)c1-c1c(F)cc(C#N)cc1F [compound 110] | 94%
30 | Cc1nn(C)c(Oc2ccc(Cl)cn2)c1-c1c(F)cc(F)cc1F [compound 39] | 99%
31 | COc1cc(F)c(-c2c(C)nn(C)c2Oc2c(F)cc(Br)cc2F)c(F)c1 [compound 90] | 100%
32 | Cc1nn(C)c(Nc2ncc(Cl)cc2Cl)c1-c1ccc(F)cc1Cl [compound 73] | 99%

These compounds were tested on Puccinia recondita f. sp. tritici (assay: Test H: wheat leaf rust, curative spray on inoculated wheat seedlings, visual disease rating). Conditions: 144 h, read-out: Test H rating (% disease control).

Row | SMILES | pest or weed control at 200 µg/mL
33 | Cc1nn(C)c(Nc2c(F)cc(F)cc2F)c1-c1ccc(F)cc1Cl [Compound 18, 4-(2-chloro-4-fluorophenyl)-1,3-dimethyl-N-(2,4,6-trifluorophenyl)-1H-pyrazol-5-amine] | 99%
34 | COc1cc(F)c(-c2c(C)nn(C)c2Nc2ccc(F)cc2F)c(F)c1 [Compound 23, 4-(2,6-difluoro-4-methoxyphenyl)-N-(2,4-difluorophenyl)-1,3-dimethyl-1H-pyrazol-5-amine] | 92%

Same assay, conditions: wheat leaf rust, curative spray; 100 = 100% disease control, 0 = no control

Row | SMILES | Test H rating (% disease control)
35 | Cc1nn(C)c(Oc2c(F)cc([N+](=O)[O-])cc2F)c1-c1ccc(F)cc1Cl [compound 121] | 83%
36 | Cc1nn(C)c(Nc2ccc(F)cc2Cl)c1-c1c(F)cc(C#N)cc1F [compound 112] | 53%
37 | Cc1nn(C)c(Nc2ccc(Cl)cc2)c1-c1c(F)cc(C#N)cc1F [compound 110] | 0%
38 | Cc1nn(C)c(Oc2ccc(Cl)cn2)c1-c1c(F)cc(F)cc1F [compound 39] | 99%
39 | COc1cc(F)c(-c2c(C)nn(C)c2Oc2c(F)cc(Br)cc2F)c(F)c1 [compound 90] | 0%
40 | Cc1nn(C)c(Nc2ncc(Cl)cc2Cl)c1-c1ccc(F)cc1Cl [compound 73] | 88%

Each compound was assayed on Puccinia recondita f. sp. tritici (assay: Test I: wheat leaf rust, preventive spray on wheat seedlings, visual disease rating). Conditions: 192 h, read-out: Test I rating (% disease control).

Row | SMILES | pest or weed control at 200 µg/mL
41 | Cc1nn(C)c(Nc2c(F)cc(F)cc2F)c1-c1ccc(F)cc1Cl [Compound 18, 4-(2-chloro-4-fluorophenyl)-1,3-dimethyl-N-(2,4,6-trifluorophenyl)-1H-pyrazol-5-amine] | 100%
42 | COc1cc(F)c(-c2c(C)nn(C)c2Nc2ccc(F)cc2F)c(F)c1 [Compound 23, 4-(2,6-difluoro-4-methoxyphenyl)-N-(2,4-difluorophenyl)-1,3-dimethyl-1H-pyrazol-5-amine] | 100%

Same assay, conditions: wheat leaf rust, preventive spray; 100 = 100% disease control, 0 = no control

Row | SMILES | Test I rating (% disease control)
43 | Cc1nn(C)c(Oc2c(F)cc([N+](=O)[O-])cc2F)c1-c1ccc(F)cc1Cl [compound 121] | 100%
44 | Cc1nn(C)c(Nc2ccc(F)cc2Cl)c1-c1c(F)cc(C#N)cc1F [compound 112] | 100%
45 | Cc1nn(C)c(Nc2ccc(Cl)cc2)c1-c1c(F)cc(C#N)cc1F [compound 110] | 97%
46 | Cc1nn(C)c(Oc2ccc(Cl)cn2)c1-c1c(F)cc(F)cc1F [compound 39] | 99%
47 | COc1cc(F)c(-c2c(C)nn(C)c2Oc2c(F)cc(Br)cc2F)c(F)c1 [compound 90] | 98%
48 | Cc1nn(C)c(Nc2ncc(Cl)cc2Cl)c1-c1ccc(F)cc1Cl [compound 73] | 100%

These compounds were tested on Alternaria solani (assay: Test C: tomato early blight, preventive spray on tomato seedlings, visual disease rating). Conditions: Alternaria solani, in Solanum lycopersicum, 168 h, read-out: Test C rating (% disease control).

Row | SMILES | pest or weed control at 200 µg/mL
49 | Cc1nn(C)c(Nc2c(F)cc(F)cc2F)c1-c1ccc(F)cc1Cl [Compound 18, 4-(2-chloro-4-fluorophenyl)-1,3-dimethyl-N-(2,4,6-trifluorophenyl)-1H-pyrazol-5-amine] | 100%
50 | COc1cc(F)c(-c2c(C)nn(C)c2Nc2ccc(F)cc2F)c(F)c1 [Compound 23, 4-(2,6-difluoro-4-methoxyphenyl)-N-(2,4-difluorophenyl)-1,3-dimethyl-1H-pyrazol-5-amine] | 100%

Same assay, conditions: tomato early blight, preventive spray; 100 = 100% disease control, 0 = no control

Row | SMILES | Test C rating (% disease control)
51 | Cc1nn(C)c(Oc2c(F)cc([N+](=O)[O-])cc2F)c1-c1ccc(F)cc1Cl [compound 121] | 86%
52 | Cc1nn(C)c(Nc2ccc(F)cc2Cl)c1-c1c(F)cc(C#N)cc1F [compound 112] | 98%
53 | Cc1nn(C)c(Nc2ccc(Cl)cc2)c1-c1c(F)cc(C#N)cc1F [compound 110] | 66%
54 | Cc1nn(C)c(Oc2ccc(Cl)cn2)c1-c1c(F)cc(F)cc1F [compound 39] | 99%
55 | COc1cc(F)c(-c2c(C)nn(C)c2Oc2c(F)cc(Br)cc2F)c(F)c1 [compound 90] | 95%
56 | Cc1nn(C)c(Nc2ncc(Cl)cc2Cl)c1-c1ccc(F)cc1Cl [compound 73] | 99%

Reference: patent US10448639B2, “Fungicidal pyrazoles” (FMC CORPORATION, priority 2009, dated 2019)
